Entries after “also recorded” stand apart in the source; their conditions may differ.
System: Male Crl:CD-1 (ICR) BR mice
Experiment: Radiant heat tail-flick assay after topical drug application to the tail
Type: in vivo
Settings: for analgesia in % of mice: alone or together, 2 min; for time of maximal analgesic effect after topical application / topical analgesic effect (in words) / duration of analgesia: single drug; for duration of analgesia: FIG. 6: S-ibuprofen 4.8 mmol, diclofenac 3.5 mmol, 2 min exposure; for time of maximal analgesic effect after topical application / topical analgesic effect (in words) / ED 50 value, propylene glycol alone / ED 50 value, propylene glycol and lauric acid: topical; for ED 50 value, propylene glycol alone / ED 50 value, propylene glycol and lauric acid: tail immersed 2 min, tested immediately afterward; for ED 50 value, propylene glycol alone: vehicle propylene glycol alone; for ED 50 value, propylene glycol and lauric acid: vehicle propylene glycol and lauric acid (10:1)
Protocol: All in vivo studies were carried out in accordance with the Declaration of Helsinki and with the Guide for Care and Use of Laboratory Animals, as adopted and promulgated by the Estonian Põllumajandusministeerium. Male Crl:CD-1® (ICR) BR mice (20-25 g) were purchased from Charles River Laboratories (Germany) and were housed in a 12:12-h light-dark cycle temperature-controlled room with food and water freely available. Drugs were obtained from Sigma (St. Louis, Mo., USA). […] Briefly, the distal portion of the tail (2-3 cm) was immersed in a propylene glycol/dH2O (10:1 ratio) alone or propylene glycol and lauric acid combination (10:1) solution containing the indicated drugs for the stated time, usually 2 min.). Analgesia was defined quantitatively as tail-flick latency for an individual animal that was twice its baseline latency or greater using tail flick apparatus (Ugo Basile, Italy). […] ED50 values were determined with GraphPad Software.

[1] = FIG. 7A: morphine 0.15 mmol, diclofenac 0.9 mmol
[2] = FIG. 9A: methadone 0.7 mmol, diclofenac 0.9 mmol
[3] = FIG. 11B: hydrocodone 0.6 mmol, S-ibuprofen 1.2 mmol
[4] = FIG. 10A: methadone 0.7 mmol, S-ibuprofen 1.2 mmol

Compound	analgesia in % of mice [1]	analgesia in % of mice [2]	time of maximal analgesic effect after topical application	topical analgesic effect (in words)	duration of analgesia	ED 50 value, propylene glycol alone	ED 50 value, propylene glycol and lauric acid	analgesia in % of mice [3]	dose response shift to left of ED50 on addition of lauric acid to propylene glycol	analgesia in % of mice [4]
O=C(O)Cc1ccccc1Nc1c(Cl)cccc1Cl [Diclofenac, diclofenac]	30%	30%	2 min	dose dependent analgesia	90 min	3.3 mmol	1.1 mmol	–	–	–
COc1ccc2c3c1O[C@H]1C(=O)CC[C@H]4[C@@H](C2)N(C)CC[C@]314 [Hydrocodone, hydrocodone]	–	–	–	most potent analgesic activity; also recorded: dose dependent response	–	1.6 mmol	1.2 mmol	20%	–	–
CCN(CC)CC(=O)Nc1c(C)cccc1C [Lidocaine, lidocaine]	–	–	–	no differences in ED50; also recorded: significant and long acting analgesic effects	–	2.2 mmol	–	–	–	–
CCC(=O)C(CC(C)N(C)C)(c1ccccc1)c1ccccc1 (stereo not shown) [Methadone, methadone]	–	30%	–	dose dependent (FIG. 4A) and naloxone sensitive	–	6.7 mmol	1.0 mmol	–	6.7 fold	25%
CN1CC[C@]23c4c5ccc(O)c4O[C@H]2[C@@H](O)C=C[C@H]3[C@H]1C5 [Morphine, morphine]	20%	–	–	–	–	7.6 mmol	–	–	–	–
CC(C)Cc1ccc([C@H](C)C(=O)O)cc1 [S-ibuprofen]	–	–	2 min	dose dependent analgesia	90 min	9.3 mmol	2.1 mmol	30%	–	30%

Reference: patent US20100143449A1, “ANALGESIC COMPOSITION OF TOPICALLY APPLIED NONSTEROIDAL ANTIINFLAMMATORY DRUGS AND OPIOIDS” (priority 2007, published 2010)
